Target: catalytic domain 2 (CD2) of HDAC6 (Homo sapiens (Human), UniProt Q9UBN7)
Experiment: Cellular target engagement assay - NanoBRET
Type: cell-based
Conditions: NanoLuc-HDAC6(CD2) in HEK293T cells, 2 hours, read-out: IC50 (HDAC6(CD2) interaction)
Method: NanoBRET target engagement was performed against the catalytic domain 2 (CD2) of HDAC6, with minor modifications of kit manufacturer protocol (Promega). Expression of exogenous NanoLuc-HDAC6(CD2) fusion and in HEK293T was achieved following transient transfection with FuGENE HD Transfection Reagent (Promega). The intracellular target engagement assay on HDAC6(CD2) was performed in a 384-well plate format with 8,000 cells per well and a tracer concentration of 0.125 μM or 0.600 μM for HDAC6(CD2). Compounds (dissolved in 100% DMSO) or DMSO (vehicle) were added either manually by diluting them in culture medium at 8× final assay concentration and then adding 5 μL to assay plate or in an automated way by adding […] compound to 5 μL OptiMEM without phenol red (Gibco) using the Echo650 (Labcyte). Tracer solution was added to the cells before seeding 35 μL cell/tracer mixture in the assay plate. The final reaction volume was 40 μL, final DMSO concentration was 1.4% (manual compound addition) or 1.25% (automated compound addition). Assay plates were incubated at 37° C. in a humidified atmosphere containing 5% C02 for 2 hours. The NanoBRET Nano-glo Substrate/Inhibitor was prepared by diluting NanoBRET Nano-Glo Substrate (1:332) and Extracellular Inhibitor (1:1000) in assay medium (Promega). […] BRET ratios were calculated from acceptor/donor signal ratio (mBRET=acceptor/donor*1000) and normalized for each plate. Percentage inhibition was calculated by setting the mBRET obtained with cells without tracer to 100%, while the mBRET obtained with uninhibited cells with tracer was set to 0%. IC50-values were calculated from the percentage inhibition with the log(inhibitor) vs. response—Variable slope (four parameters) nonlinear regression in GraphPad Prism software.

Chain of catalytic domain 2 (CD2) of HDAC6 (Q9UBN7 482-800): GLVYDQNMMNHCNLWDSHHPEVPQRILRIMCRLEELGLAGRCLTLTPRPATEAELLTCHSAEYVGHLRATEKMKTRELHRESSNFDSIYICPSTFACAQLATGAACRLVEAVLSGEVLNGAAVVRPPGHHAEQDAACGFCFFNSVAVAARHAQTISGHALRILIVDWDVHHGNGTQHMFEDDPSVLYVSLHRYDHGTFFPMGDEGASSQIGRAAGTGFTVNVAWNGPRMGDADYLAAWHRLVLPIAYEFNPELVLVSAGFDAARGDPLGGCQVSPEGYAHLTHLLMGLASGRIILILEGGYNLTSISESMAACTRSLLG

Structure (SMILES)	IC50 [nM]
CC(NC(=O)CO)c1ccc(C(=O)CSc2nc3cnc(C(F)(F)F)cc3o2)s1 (stereo in doubt) [Example 129, (S)-2-hydroxy-N-(1-(5-(2-((6-(trifluoromethyl)oxazolo[4,5-c]pyridin-2-yl)thio)acetyl)thiophen-2-yl)ethyl)acetamide]	≤ 100
O=C(CSc1nc(C(F)(F)F)nc2ncccc12)c1ccc(CN2CCC(O)C2=O)s1 (stereo in doubt) [Example 156, (R)-3-hydroxy-1-((5-(2-((2-(trifluoromethyl)pyrido[2,3-d]pyrimidin-4-yl)thio)acetyl)thiophen-2-yl)methyl)pyrrolidin-2-one]	≤ 100
Cn1ncc2c(SCC(=O)c3ccc(CNC(=O)C(O)C(F)(F)F)s3)ncnc21 (stereo not drawn) [Compound 42, 3,3,3-trifluoro-2-hydroxy-N-((5-(2-((1-methyl-1H-pyrazolo[3,4-d]pyrimidin-4-yl)thio)acetyl)thiophen-2-yl)methyl)propanamide]	500 to 1000
O=C(CSc1nc2nc(C(F)(F)F)ccc2o1)c1ccc(CNC(=O)C2(O)CC2)s1 [Compound 45, 1-hydroxy-N-((5-(2-((5-(trifluoromethyl)oxazolo[4,5-b]159yrrolid-2-yl)thio)acetyl)thiophen-2-yl)methyl)cyclopropane-1-carboxamide]	≤ 100
Cn1cc2c(SCC(=O)c3ccc(CNC(=O)C(O)C(F)(F)F)s3)nc(C(F)(F)F)nc2n1 (stereo not drawn) [Compound 46, 3,3,3-trifluoro-2-hydroxy-N-((5-(2-((2-methyl-6-(trifluoromethyl)-2H-pyrazolo[3,4-d]pyrimidin-4-yl)thio)acetyl)thiophen-2-yl)methyl)propanamide]	≤ 100
O=C(CSc1nc(C(F)(F)F)nc2ccc(N3CCOCC3)cc12)c1ccc(CNC(=O)C2(O)CC2)s1 [Compound 47, 1-hydroxy-N-((5-(2-((6-morpholino-2-(trifluoromethyl)quinazolin-4-yl)thio)acetyl)thiophen-2-yl)methyl)cyclopropane-1-carboxamide]	100 to 500
Cn1cc2c(SCC(=O)c3ccc(CNC(=O)C(C)(C)O)s3)nc(C(F)(F)F)nc2n1 [Compound 48, 2-hydroxy-2-methyl-N-((5-(2-((2-methyl-6-(trifluoromethyl)-2H-pyrazolo[3,4-d]pyrimidin-4-yl)thio)acetyl)thiophen-2-yl)methyl)propanamide]	≤ 100
Cn1cc2c(SCC(=O)c3ccc(CNC(=O)C4(O)CC4)s3)nc(C(F)(F)F)nc2n1 [Compound 49, 1-hydroxy-N-((5-(2-((2-methyl-6-(trifluoromethyl)-2H-pyrazolo[3,4-d]pyrimidin-4-yl)thio)acetyl)thiophen-2-yl)methyl)cyclopropane-1-carboxamide]	≤ 100
COc1ccc2nc(C)nc(SCC(=O)c3ccc(CNC(=O)C4(O)CC4)s3)c2c1 [Compound 50, 1-hydroxy-N-((5-(2-((6-methoxy-2-methylquinazolin-4-yl)thio)acetyl)thiophen-2-yl)methyl)cyclopropane-1-carboxamide]	100 to 500
Cn1ncc2c(SCC(=O)c3ccc(CNC(=O)C(C)(C)O)s3)ncnc21 [Compound 52, 2-hydroxy-2-methyl-N-((5-(2-((1-methyl-1H-pyrazolo[3,4-d]pyrimidin-4-yl)thio)acetyl)thiophen-2-yl)methyl)propanamide]	500 to 1000
CCc1nc(SCC(=O)c2ccc(CNC(=O)CO)s2)c2ccccc2n1 [Compound 62, N-((5-(2-((2-ethylquinazolin-4-yl)thio)acetyl)thiophen-2-yl)methyl)-2-hydroxyacetamide]	≤ 100
Cc1nc(SCC(=O)c2ccc(CNC(=O)CO)s2)c2cn(C)nc2n1 [Compound 65, N-((5-(2-((2,6-dimethyl-2H-pyrazolo[3,4-d]pyrimidin-4-yl)thio)acetyl)thiophen-2-yl)methyl)-2-hydroxyacetamide]	500 to 1000
Cc1nc(SCC(=O)c2ccc(CNC(=O)CO)s2)c2ccccc2n1 [Compound 66, 2-hydroxy-N-((5-(2-((2-methylquinazolin-4-yl)thio)acetyl)thiophen-2-yl)methyl)acetamide]	≤ 100
Cc1nc(SCC(=O)c2ccc(CNC(=O)CO)s2)c2cc(F)ccc2n1 [Compound 67, N-((5-(2-((6-fluoro-2-methylquinazolin-4-yl)thio)acetyl)thiophen-2-yl)methyl)-2-hydroxyacetamide]	100 to 500
Cc1nc(SCC(=O)c2ccc(CNC(=O)CO)s2)c2ccc(F)cc2n1 [Compound 68, N-((5-(2-((7-fluoro-2-methylquinazolin-4-yl)thio)acetyl)thiophen-2-yl)methyl)-2-hydroxyacetamide]	100 to 500
COc1ccc2c(SCC(=O)c3ccc(CNC(=O)CO)s3)nc(C)nc2c1 [Compound 70, 2-hydroxy-N-((5-(2-((7-methoxy-2-methylquinazolin-4-yl)thio)acetyl)thiophen-2-yl)methyl)acetamide]	100 to 500
Cc1nc(SCC(=O)c2ccc(CNC(=O)CO)s2)c2cc(OC3CC3)ccc2n1 [Compound 77, N-((5-(2-((6-cyclopropoxy-2-methylquinazolin-4-yl)thio)acetyl)thiophen-2-yl)methyl)-2-hydroxyacetamide]	≤ 100
Cc1nc(SCC(=O)c2ccc(CNC(=O)CO)s2)c2cc(NCC3CC3)ccc2n1 [Compound 78, N-((5-(2-((6-((cyclopropylmethyl)amino)-2-methylquinazolin-4-yl)thio)acetyl)thiophen-2-yl)methyl)-2-hydroxyacetamide]	≤ 100
COc1ccc2nc(C(F)(F)F)nc(SCC(=O)c3ccc(CNC(=O)CO)s3)c2c1 [Compound 80, 2-hydroxy-N-((5-(2-((6-methoxy-2-(trifluoromethyl)quinazolin-4-yl)thio)acetyl)thiophen-2-yl)methyl)acetamide]	≤ 100
Cc1nc(SCC(=O)c2ccc(CNC(=O)CO)s2)c2cc(N3CCOCC3)ccc2n1 [Compound 81, 2-hydroxy-N-((5-(2-((2-methyl-6-morpholinoquinazolin-4-yl)thio)acetyl)thiophen-2-yl)methyl)acetamide]	≤ 100
Cc1nc(SCC(=O)c2ccc(CNC(=O)CO)s2)c2cc(N3CCCCC3)ccc2n1 [Compound 82, 2-hydroxy-N-((5-(2-((2-methyl-6-(piperidin-1-yl)quinazolin-4-yl)thio)acetyl)thiophen-2-yl)methyl)acetamide]	≤ 100
Cc1nc(SCC(=O)c2ccc(CNC(=O)CO)s2)c2cc(N3CCCOCC3)ccc2n1 [Compound 83, 2-hydroxy-N-((5-(2-((2-methyl-6-(1,4-oxazepan-4-yl)quinazolin-4-yl)thio)acetyl)thiophen-2-yl)methyl)acetamide]	≤ 100
Cc1nc(SCC(=O)c2ccc(CNC(=O)CO)s2)c2cc(N3CCC(F)(F)C3)ccc2n1 [Compound 84, N-((5-(2-((6-(3,3-difluoropyrrolidin-1-yl)-2-methylquinazolin-4-yl)thio)acetyl)thiophen-2-yl)methyl)-2-hydroxyacetamide]	≤ 100
Cn1ncc2c(SCC(=O)c3ccc(C4CCN(C(=O)CO)C4)s3)ncnc21 (stereo not drawn) [Compound 86, 2-hydroxy-1-(3-(5-(2-((1-methyl-1H-pyrazolo[3,4-d]pyrimidin-4-yl)thio)acetyl)thiophen-2-yl)157yrrolidine-1-yl)ethan-1-one]	1000 to 10000
Cn1ncc2c(SCC(=O)c3ccc(CNS(=O)(=O)c4ccccc4)s3)ncnc21 [Compound 88, N-((5-(2-((1-methyl-1H-pyrazolo[3,4-d]pyrimidin-4-yl)thio)acetyl)thiophen-2-yl)methyl)benzenesulfonamide]	1000 to 10000
Cn1ncc2c(SCC(=O)c3ccc(CNS(=O)(=O)C4CC4)s3)ncnc21 [Compound 89, N-((5-(2-((1-methyl-1H-pyrazolo[3,4-d]pyrimidin-4-yl)thio)acetyl)thiophen-2-yl)methyl)cyclopropanesulfonamide]	1000 to 10000
Cn1ncc2c(SCC(=O)c3ccc(C4CCN(S(N)(=O)=O)C4)s3)ncnc21 (stereo not drawn) [Compound 96, 3-(5-(2-((1-methyl-1H-pyrazolo[3,4-d]pyrimidin-4-yl)thio)acetyl)thiophen-2-yl)pyrrolidine-1-sulfonamide]	500 to 1000
CC(=O)NCc1ccc(C(=O)CSc2nc(C(F)(F)F)nc3ccccc23)s1 [Compound 99, N-((5-(2-((2-(trifluoromethyl)quinazolin-4-yl)thio)acetyl)thiophen-2-yl)methyl)acetamide]	≤ 100
CC(=O)NCCc1ccc(C(=O)CSc2nc(C(F)(F)F)nc3ccccc23)s1 [Compound 100, N-(2-(5-(2-((2-(trifluoromethyl)quinazolin-4-yl)thio)acetyl)thiophen-2-yl)ethyl)acetamide]	100 to 500
Cn1ncc2c(SCC(=O)c3ccc(CNC(=O)C(C)(C)C)s3)ncnc21 [Compound 102, N-((5-(2-((1-methyl-1H-pyrazolo[3,4-d]pyrimidin-4-yl)thio)acetyl)thiophen-2-yl)methyl)pivalamide]	100 to 500

— patent publication US20250051319A1 (AUGUSTINE THERAPEUTICS, priority 2021, published 2025)
